In US20250381110A1, “SKIN CARE COMPOSITION AND METHOD OF USING THE SAME” (THE PROCTER & GAMBLE COMPANY, priority 2024, published 2025):

Legend:
[1] = tested on: primary human dermal fibroblasts (HDFs); test: Mitophagy assay, mt-mKeima reporter, fluorescence microscopy; type: cell-based
Procedure: Primary human dermal fibroblasts (HDFs) were cultured in DMEM supplemented with 10 percent FBS, 100 units per milliliter penicillin/streptomycin, and 2 millimolar L-glutamine in a humidified atmosphere containing 5 percent carbon dioxide at 37 degrees Celsius. Stable expression of mt-mKeima was achieved through retroviral transduction (Kelly et al.). Cells stably expressing mt-mKeima were seeded in a 35 mm glass bottom dish (MatTek). The live-cell mt-Keima signal was obtained via widefield microscopy using the DMi8 and 2 filtersets to obtain the acidic (561 nm excitation, “red”) and pH-neutral (480 nm, “green”) mKeima signals. Using FIJI/ImageJ, a macro was applied to the mt-mKeima signal to extract mitolysosomes. In detail, images were masked by applying MaxEntropy threshold to the images obtained with 561 nm excitation to remove low mt-mKeima red signal and background. Then, images were generated by subtracting the signal of green mKeima from that of red mKeima. Resulting images were binarised with the MaxEntropy threshold algorithm to extract mitolysosomes. Mitophagy events were determined as the number of puncta per cell. Cells stably expressing pSu9-Halo-GFP seeded in a 35 glass bottom dish (MatTek) were stained with 1 μM Halo TMR ligand (Promega, G8251) for 48 h. Fluorescence images were obtained using an LSM700 confocal microscope (Zeiss). The number of mitolysosomes (GFP-Halo+puncta) per cell was quantified using proprietary plugin in Fiji/ImageJ. Both mKeima and pSu9-Halo-GFP reporters directly visualize frequency of mitophagy events (e.g., mitochondria delivered by autophagolysosomes to lysosomes for degradation) (Kelly et al.).

p21 = test: Immunostaining for p21 (percentage of p21-positive cells); type: cell-based, human
Procedure: (§1) Immunofluorescence analyses were performed as described previously (Carroll et al.). In brief, cells were seeded on coverslips in 24-well plates and fixed in 4% formaldehyde in PBS for 10 min at room temperature followed by permeabilization in 0.5% Triton X-100 (Sigma-Aldrich) in PBS for 4 min at room temperature (Ki67 and p21) or in methanol for 4 min at −20° C. (LC3 and p62). Cells were then blocked for 1 h in 5% normal goat serum (Sigma-Aldrich) in PBS at room temperature and incubated with primary antibodies overnight at 4° C. Cells were washed three times and incubated with the appropriate secondary antibodies for 1 h at room temperature (Thermo Fisher Scientific, A31556 and A21235, 1:1000). Cells were washed, and coverslips were mounted on slides with Prolong Gold antifade mountant with DAPI (Invitrogen). Fluorescence images were obtained as described above. The following primary antibodies were used: rabbit anti-Ki67 (Abcam, ab 15580, 1:250), rabbit anti-p21 (CST, 2947, 1:1000), mouse anti-LC3 (NanoTools, 0260-100, 1:200) and rabbit anti-p62 (MBL, PM045, 1:500).

[2] = tested on: human dermal fibroblasts (HDFs); test: EdU incorporation assay; type: cell-based; conditions: HDFs from aged donors; 30 μM, 7 h
Ki67 = test: Immunostaining for Ki67 (percentage of Ki67-positive cells); type: cell-based, human; conditions: HDFs; 30 μM for 5 h prior to IR; 11 days after IR
Procedure: as §1

[3] = tested on: human dermal fibroblasts (HDFs); test: Mitochondrial mass by Mitotracker Green staining; type: cell-based; conditions: HDFs from aged donors; 30 μM, 7 h
Procedure: The Seahorse XF Cell Mito Stress Test Kit (Agilent) was used to measure oxygen consumption rates in adult dermal fibroblasts. One day prior to the assay cells were seeded at either 4000 per well or 3000 per well. Where indicated, fibroblast plates were subjected to 20Gy IR 2 h before assay. […] HDFs were stained with 100 nM Mitotracker Green for mitochondrial density measurement. The Mito Stress Test was performed as per manufacturer's guidelines on a Seahorse XF96 Extracellular Flux analyser using previously optimized conditions. Following assay completion, cells were fixed in 4% PFA for 20 minutes. PFA was then removed, and cells were washed twice with PBS. Following fixation, cells were stained with Hoescht nucleic acid stain (Invitrogen) for 10 min before being washed twice in PBS. Fluorescence was subsequently measured using the PHERAstar FSX plate reader (BMG LABTECH) at 350/460 nm for normalization purposes. Following normalization, OCR measurements were interpreted from data generated from the Agilent Seahorse Wave software version 2.6.3.5. Basal respiration data in unstressed conditions is presented. OCR measurements were further normalised to mitochondrial density to obtain ATP production (pmol/min/mitochondria).

[4] = tested on: human dermal fibroblasts (HDFs); test: Seahorse analysis, ATP production normalized to MitoTracker density; type: cell-based; conditions: HDFs from aged donors; 30 μM, 7 h
Procedure: The Seahorse XF Cell Mito Stress Test Kit (Agilent) was used to measure oxygen consumption rates in adult dermal fibroblasts. One day prior to the assay cells were seeded at either 4000 per well or 3000 per well. Where indicated, fibroblast plates were subjected to 20Gy IR 2 h before assay. STOCKIN ([…]) or vehicle (DMSO) treatments were performed 7 h before Seahorse assays. HDFs were stained with 100 nM Mitotracker Green for mitochondrial density measurement. The Mito Stress Test was performed as per manufacturer's guidelines on a Seahorse XF96 Extracellular Flux analyser using previously optimized conditions. Following assay completion, cells were fixed in 4% PFA for 20 minutes. PFA was then removed, and cells were washed twice with PBS. Following fixation, cells were stained with Hoescht nucleic acid stain (Invitrogen) for 10 min before being washed twice in PBS. Fluorescence was subsequently measured using the PHERAstar FSX plate reader (BMG LABTECH) at 350/460 nm for normalization purposes. Following normalization, OCR measurements were interpreted from data generated from the Agilent Seahorse Wave software version 2.6.3.5. Basal respiration data in unstressed conditions is presented. OCR measurements were further normalised to mitochondrial density to obtain ATP production (pmol/min/mitochondria).

IL-6 = test: SASP assessment, IL-6 mRNA by qPCR; type: cell-based, human
Procedure: Quantibody Human Cytokine Arrays for 20 cytokines (RayBiotech; QAH-CYT-1) were performed using conditioned media collected from primary dermal fibroblasts culture. mRNA levels of human IL-6 and IL-8 were measured by quantitative polymerase chain reaction (qPCR. Total RNA was extracted using RNeasy Mini Kit (QIAGEN, 74104). From 500 ng of total RNA, first-strand complementary DNA (cDNA) was produced using SuperScript III reverse transcriptase (Invitrogen, 18080044). Quantitative PCR was performed in a StepOnePlus Real-Time PCR system (Applied Biosystems) using Power SYBR Green PCR Master Mix (Applied Biosystems, 4367659). mRNA levels were determined with the […] and normalised to GAPDH levels.

[5] = HDFs from aged donors, 30 μM, 7 h

## CC(=O)Oc1ccc(N2C(=O)C3C(Cc4ccccc4)NC4(C(=O)Nc5c4ccc(Cl)c5C)C3C2=O)cc1 (centres unmarked) [STOCKIN-57543]
[1]; [5]
  functional mitophagy (mitophagy events): restoring functional mitophagy
[1]; HDFs with p62 knockdown
  rescue of suppressed basal mitophagy in the absence of p62: unable to rescue the suppression of basal mitophagy
[1]; HDFs, 30 μM for 5 h prior to 20 Gy IR
  IR-associated decrease in mitophagy: preventing IR-associated decrease in mitophagy
p21; [5]
  p21 expression: decreasing elevated p21 expression
p21; HDFs, treatment 5 h prior to IR
  IR-associated increased p21 expression: mitigating IR-associated increased p21 expression
[2]
  cellular proliferation capacity (EdU incorporation): restoring cellular proliferation capacity
Ki67
  IR-associated decrease in cellular proliferation capacity (Ki67): mitigating IR-associated decrease in cellular proliferation capacity
[3]
  mitochondrial mass: restoring mitochondrial mass
[4]
  mitochondrial function (ATP production per cell normalized to MitoTracker density): restoring
IL-6; [5]
  levels of the SASP factor IL-6 (mRNA): decreasing levels of the SASP factor IL-6
IL-6; HDFs, 30 μM for 5 h prior to IR, 11 days after IR
  IR-associated increase in IL-6 level (mRNA): mitigating IR-associated increases in levels of the SASP factors IL-6 and IL-8
